US9034820B2, “Method and composition for modulating erythropoiesis” (priority 2011, dated 2015)
Entries after “also recorded” stand apart in the source; their conditions may differ.

Experiments:
[1] = system: human CD133+ hematopoietic stem cells (hHSCs); assay: expansion and differentiation of hHSC-derived erythroid cells in culture; format: cell-based; conditions: LPA present, EPO-free, data not shown
Protocol: (§1) CD133^+ stem cells were isolated from human umbilical cord blood by magnetic microbead selection using Direct […] progenitor isolation beads (Miltenyi Biotech, Bergisch Gladbach, Germany) and MACS LS-columns (Miltenyi Biotech), and were subsequently cultured. In stage I, 10^5 CD133^+ cells were cultured in 10 ml of EDM (10^4 cells/ml), containing human stem cell factor (SCF, 50 ng/ml), human EPO (6 IU/ml), human interleukin (IL)-3 (10 ng/ml), human vascular endothelial growth factor (VEGF, 10 ng/ml), and human insulin-like growth factor (IGF)-II (250 ng/ml) for 6 days. In stage II, cells were cultured in 10 ml of EDM (3×10^4 cells/ml) in the presence of SCF (50 ng/ml) and EPO (6 IU/ml) for 4 days. In stage III, cells were cultured in 10 ml of EDM (5×10^4 cells/ml) in the presence of SCF (50 ng/ml) and EPO (2 IU/ml) for 6 days. Cultured cells respectively underwent 30-, 20-, and 10-fold expansions in stages I, II, and III. All cell cultures were incubated at 37° C. in 5% CO2 under humidified conditions. LPA (Sigma) was prepared in chloroform and methanol (1:9) and stored at −20° C. LPA was added to serum-free medium with 0.005% fatty acid-free BSA as a carrier.
Ki16425 (Cayman Chemical, Ann Arbor, Mich., USA) powder was diluted in dimethyl sulfoxide (DMSO) at a concentration of 40 mM as the stock. […]

[2] = system: human CD133+ hematopoietic stem cells (hHSCs); assay: real-time PCR of erythroid marker mRNA in cultured hHSCs during erythropoietic differentiation; format: cell-based
Protocol: as §1
(§2) Ki16425 (Cayman Chemical, Ann Arbor, Mich., USA) powder was diluted in dimethyl sulfoxide (DMSO) at a concentration of 40 mM as the stock. At the ends of stages I and II, HSCs were pretreated with Ki16425 in serum-free medium for 1 h. Then, cells were cultured in media of stages II and III containing Ki16425 at a final concentration of 20 μM. Quercetin (Sigma) was dissolved in DMSO at 100 mM as the stock and stored at −20° C. Quercetin was diluted into each final concentration by culture media for treatment.
Total RNA extraction was isolated using Trizol Reagent (Invitrogen, Carlsbad, Calif., USA). Complementary (c)DNA was synthesized from 1 μg total RNA with a reverse-transcription polymerase chain reaction (RT-PCR). Primer sequences were:
A real-time PCR with the mixture reagent SYBR®-Green I (Thermo Scientific, San Diego, Calif., USA) was carried out on an iCycler iQ™ real-time detection system (Bio-Rad, Hercules, Calif., USA). The specificity of the primers was confirmed from a single peak of the melting curve. Each target mRNA level was evaluated from the real-time threshold cycle and compared to the GAPDH amount as an internal control.

[3] = system: human CD133+ hematopoietic stem cells (hHSCs); assay: flow cytometry of CD71 and GlyA protein on cultured hHSCs; format: cell-based; conditions: end of stage II induction
Protocol: as §1, §2
HSC cultures were collected, washed, and stained either with anti-GlyA-PE and anti-CD71-PE/Cy5 for 30 minutes (BD Biosciences Pharmingen, San Diego, Calif., USA). Stained cells were washed and resuspended in PBS. Non-stained and single-stained samples were prepared for fluorescent compensation. […]

zLPA3 = assay: o-dianisidine blood cell staining of zLPA3 morpholino-injected zebrafish embryos; format: in vivo, zebrafish (Danio rerio); conditions: for percentages of erythrocyte-defective embryos compared to control embryos: 48 hpf and 60 hpf; for effect of LPA3 knockdown on erythrocyte formation (o-dianisidine staining; normal, moderate, severe): injected at one-cell stage, 0, 2.5 and 5 ng, 48 hpf
Protocol: Wild-type zebrafish (Danio rerio) obtained from the Zebrafish Information Research Center (Eugene, Oreg., USA) were inbred at 27-28° C. Embryos were collected from natural spawning, washed, and incubated in 0.3× Danieau's buffer at 28° C. until being used. Each stage of fish embryos was determined from their morphology. Embryos at 12 hour post-fertilization (hpf) were treated with 0.2 mM 1-phenyl-2-thiourea (PTU) (Sigma, St. Louis, Mo., USA) in 0.3× Danieau's buffer to suppress melanization. Dechorionation of embryos was carried out with 0.01 g/ml protease (Sigma).
Glass capillary tubes were pulled by a horizontal puller (P-97, Sutter Instrument, Navato, Calif., USA). Two zLPA3 translation-blocking (t)MOs (Gene Tools, Philomath, Oreg., USA) were utilized as follows:
tMO1: 5′-[…]-3′ (−27 to −3) (SEQ ID No. 1); and
tMO2: 5′-[…]-3′ (+1 to +23) (SEQ ID No. 2).
The MOs were prepared at 1 mM in sterile H2O as a stock solution, and further diluted into desired working concentrations in 1× Danieau's buffer with 0.5% phenol red. Fish embryos were fixed on 1% injection agar plates, and 2.3 nl of solution was injected into the yolk sac and blastodisc interface with a nanoliter injector (World Precision Instruments, Sarasota, Fla., USA). The injected embryos were incubated in 0.3× Danieau's buffer at 28.5° C. for further experiments.
Embryos from designated stages were incubated in freshly prepared o-dianisidine solution (40% ethanol, 0.01 M sodium acetate, 0.65% H2O2, and 0.6 mg/ml o-dianisidine [Sigma]) for 15 minutes in the dark.

[4] = stage II, 24-hour LPA 18:1 (1~10 μM), plasma-free medium, concentration-dependent

## CCCCCCCC/C=C\CCCCCCCC(=O)OCC(O)COP(=O)(O)O (stereo not drawn) [LPA, (2-hydroxy-3-phosphonooxypropyl) (Z)-octadec-9-enoate]
[1]
  differentiation of erythroid cells in the absence of EPO: severely decreased
[2]; [4]
  mRNA level of CD71: increased; also recorded: elevated
  mRNA level of GATA-1: elevated
  mRNA level of GlyA: elevated
[3]; 5 and 10 μM LPA, 4 days
  protein expression level of CD71: higher levels
  protein expression level of GlyA: not GlyA

## O=c1c(O)c(-c2ccc(O)c(O)c2)oc2cc(O)cc(O)c12 [quercetin]
[2]; quercetin 5, 20 and 50 μM
  increase in CD71 mRNA under LPA induction: suppressed; also recorded: inhibited
[3]; quercetin (20 μM)
  LPA-induced protein expression of CD71: decreased; also recorded: suppressed

## tMO1: zLPA3 translation-blocking morpholino 5′-CACTGTCCTAGTGGGTTTTGTCCAA-3′ (SEQ ID No. 1) (all phosphorodiamidate morpholino (PMO))
zLPA3
  percentages of erythrocyte-defective embryos compared to control embryos: significantly higher
  effect of LPA3 knockdown on erythrocyte formation (o-dianisidine staining; normal, moderate, severe): dose-dependent effect

## tMO2: zLPA3 translation-blocking morpholino 5′-ATGGCCAGGCACAACATCTGCTA-3′ (SEQ ID No. 2) (all phosphorodiamidate morpholino (PMO))
zLPA3
  percentages of erythrocyte-defective embryos compared to control embryos: significantly higher
  effect of LPA3 knockdown on erythrocyte formation (o-dianisidine staining; normal, moderate, severe): dose-dependent effect
